According to patent US8895558B2, “Arylpiperazine-containing pyrrole 3-carboxamide derivatives for treating depressive disorders” (Green Cross Corporation, priority 2008, dated 2014):
pIC50: −log10 of the molar value. Structures can show the parent of a compound that is named as a salt.

What was measured:
[1] = target: T1, human serotonin transporter (Homo sapiens, UniProt P31645); assay: Binding affinity for serotonin transporter ([3H]Imipramine); conditions: HEK-293 membranes, 2 nM [3H]Imipramine
T1 construct: purchased PerkinElmer; host or cells: HEK-293
Outline: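 Membranes from HEK-293 cells expressing human serotonin transporter (5 ug/well) incubated with compound and 2 nM [3H]imipramine in 50 mM Tris-HCl pH 7.4, 120 mM NaCl, 5 mM KCl, 30 min at 27. Bound ligand separated by filtration onto glass fiber filters presoaked in 0.5% PEI, washed with ice-cold Tris-HCl/0.9% NaCl.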

[2] = target: T2, human recombinant 5-HT2C receptor (Homo sapiens, UniProt P28335); assay: Binding affinity for serotonin 5-HT2C receptor ([3H]Mesulergine); conditions: CHO-K1 membranes, 1.3 nM [3H]Mesulergine
T2 construct: purchased PerkinElmer
T2 sequence (P28335 33-458): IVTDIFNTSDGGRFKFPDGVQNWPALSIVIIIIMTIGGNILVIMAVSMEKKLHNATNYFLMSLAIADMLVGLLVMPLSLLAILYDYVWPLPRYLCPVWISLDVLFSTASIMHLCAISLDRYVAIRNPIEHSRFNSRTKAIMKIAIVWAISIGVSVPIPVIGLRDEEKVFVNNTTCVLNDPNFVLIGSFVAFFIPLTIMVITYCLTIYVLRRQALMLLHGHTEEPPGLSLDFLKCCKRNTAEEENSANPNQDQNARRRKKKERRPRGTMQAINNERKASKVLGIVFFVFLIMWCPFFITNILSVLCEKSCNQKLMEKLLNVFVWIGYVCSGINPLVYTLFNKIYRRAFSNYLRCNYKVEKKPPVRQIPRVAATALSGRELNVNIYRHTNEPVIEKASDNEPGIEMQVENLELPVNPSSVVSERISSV
Outline: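 Competition binding with [3H]mesulergine; nonspecific binding defined with 100 uM mianserin. Incubation 60 min at 27, stopped by rapid filtration onto glass fiber filters presoaked in 0.5% PEI.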

[3] = target: T3, human recombinant serotonin 5-HT2A receptor (Homo sapiens, UniProt P28223); assay: Binding affinity for serotonin 5-HT2A receptor ([3H]Ketanserin); conditions: CHO-K1 expressed receptor, 1 nM [3H]Ketanserin
T3 construct: purchased PerkinElmer Life and Analytical Sciences, USA; host or cells: CHO-K1
Outline: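 Membranes from CHO-K1 cells expressing recombinant receptor (5 ug/well) incubated 60 min at 27 with 1 nM [3H]ketanserin in 50 mM Tris-HCl pH 7.4, 4 mM CaCl2, 0.1% ascorbic acid; mianserin 20 uM defined nonspecific binding. Filtration and counting; IC50 by nonlinear regression over 7-8 concentrations in duplicate.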

T3 sequence (P28223 whole entry): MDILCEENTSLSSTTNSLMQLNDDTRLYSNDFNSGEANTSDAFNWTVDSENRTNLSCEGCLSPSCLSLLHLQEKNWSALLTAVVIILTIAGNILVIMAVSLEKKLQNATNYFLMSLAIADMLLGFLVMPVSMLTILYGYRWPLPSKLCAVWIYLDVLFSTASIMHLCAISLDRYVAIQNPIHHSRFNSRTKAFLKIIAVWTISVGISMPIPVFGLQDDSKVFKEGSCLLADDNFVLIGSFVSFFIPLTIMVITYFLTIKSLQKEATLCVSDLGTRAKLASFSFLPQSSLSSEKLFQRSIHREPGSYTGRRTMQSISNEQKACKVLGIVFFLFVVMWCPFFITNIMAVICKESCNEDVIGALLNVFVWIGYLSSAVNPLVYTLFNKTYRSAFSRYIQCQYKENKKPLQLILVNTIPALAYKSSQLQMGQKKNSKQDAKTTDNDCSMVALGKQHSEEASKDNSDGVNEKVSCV
T1 sequence (P31645 whole entry): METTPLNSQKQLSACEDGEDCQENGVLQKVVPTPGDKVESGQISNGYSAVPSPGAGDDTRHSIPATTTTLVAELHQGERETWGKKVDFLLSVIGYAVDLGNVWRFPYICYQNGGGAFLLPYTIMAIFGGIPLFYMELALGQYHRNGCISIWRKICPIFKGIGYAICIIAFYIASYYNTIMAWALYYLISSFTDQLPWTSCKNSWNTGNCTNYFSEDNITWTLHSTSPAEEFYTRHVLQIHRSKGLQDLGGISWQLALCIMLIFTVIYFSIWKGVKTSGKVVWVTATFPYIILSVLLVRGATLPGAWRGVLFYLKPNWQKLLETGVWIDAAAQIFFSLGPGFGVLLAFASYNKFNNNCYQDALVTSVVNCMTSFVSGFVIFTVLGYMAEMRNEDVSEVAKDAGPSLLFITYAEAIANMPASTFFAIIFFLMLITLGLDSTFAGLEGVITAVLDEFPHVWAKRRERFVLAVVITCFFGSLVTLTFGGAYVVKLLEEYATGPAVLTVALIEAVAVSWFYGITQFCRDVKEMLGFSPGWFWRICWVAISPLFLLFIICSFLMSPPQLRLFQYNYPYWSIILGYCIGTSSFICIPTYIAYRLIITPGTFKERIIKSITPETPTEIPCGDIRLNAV

Row | SMILES | pIC50 [1] | pIC50 [2] | pIC50 [3]
1 | Cc1cccc(N2CCN(CCCNC(=O)c3cc(-c4ccccc4)[nH]c3C)CC2)c1C [Example 24, N-(3-(4-(2,3-dimethylphenyl)piperazin-1-yl)propyl)-2-methyl-5-phenyl-1H-pyrrole-3-carboxamide] | 7.11 | 6.21 | 6.52
2 | Cc1cc(C(=O)NCCCN2CCN(c3cccc(Cl)c3Cl)CC2)c(C)n1-c1ccccc1 [Example 170, N-(3-(4-(2,3-dichlorophenyl)piperazin-1-yl)propyl)-2,5-dimethyl-1-phenyl-1H-pyrrole-3-carboxamide] | 7.70 | 7.01 | 6.88
3 | Cc1c(C(=O)NCCCN2CCN(c3cccc(Cl)c3Cl)CC2)cc(-c2ccccc2)n1CC1CCCCC1 [Example 22, 1-(cyclohexylmethyl)-N-(3-(4-(2,3-dichlorophenyl)piperazin-1-yl)propyl)-2-methyl-5-phenyl-1H-pyrrole-3-carboxamide] | 6.39 | 5.99 | 5.36
4 | Cc1c(C(=O)NCCCCN2CCN(c3cccc(Cl)c3Cl)CC2)cc(-c2ccccc2)n1C [Example 36, N-(4-(4-(2,3-dichlorophenyl)piperazin-1-yl)butyl)-1,2-dimethyl-5-phenyl-1H-pyrrole-3-carboxamide hydrochloride] | 7.03 | 7.49 | 7.55
5 | CCCn1c(-c2ccccc2)cc(C(=O)NCCCN2CCN(c3cccc(OC)c3OC)CC2)c1C [Example 159, N-(3-(4-(2,3-dimethoxyphenyl)piperazin-1-yl)propyl)-2-methyl-5-phenyl-1-propyl-1H-pyrrole-3-carboxamide] | 5.70 | 6.01 | 6.06
6 | CCCCCCn1c(-c2ccccc2)cc(C(=O)NCCCN2CCN(c3cccc(Cl)c3Cl)CC2)c1C [Example 72, N-(3-(4-(2,3-dichlorophenyl)piperazin-1-yl)propyl)-1-hexyl-2-methyl-5-phenyl-1H-pyrrole-3-carboxamide hydrochloride] | 5.92 | 7.17 | 6.52
7 | Cc1[nH]c(-c2ccccc2)cc1C(=O)NCCCN1CCN(c2cccc(Cl)c2Cl)CC1 [Example 25, N-(3-(4-(2,3-dichlorophenyl)piperazin-1-yl)propyl)-2-methyl-5-phenyl-1H-pyrrole-3-carboxamide] | 6.88 | 6.22 | 6.52
8 | Cc1c(C(=O)NCCCN2CCN(c3cccc(Cl)c3Cl)CC2)cc(-c2ccccc2)n1CC(C)C [Example 28, N-(3-(4-(2,3-dichlorophenyl)piperazin-1-yl)propyl)-1-isobutyl-2-methyl-5-phenyl-1H-pyrrole-3-carboxamide] | 6.42 | 6.47 | 6.39
9 | Cc1c(C(=O)NCCCN2CCN(c3cccc(Cl)c3Cl)CC2)cc(-c2ccncc2)n1C [Example 106, N-(3-(4-(2,3-dichlorophenyl)piperazin-1-yl)propyl)-1,2-dimethyl-5-(pyridin-4-yl)-1H-pyrrole-3-carboxamide] | 7.07 | 6.76 | 7.41
10 | CCn1c(-c2ccc(OC)cc2)cc(C(=O)NCCCN2CCN(c3cccc(Cl)c3Cl)CC2)c1C [Example 75, N-(3-(4-(2,3-dichlorophenyl)piperazin-1-yl)propyl)-1-ethyl-5-(4-methoxyphenyl)-2-methyl-1H-pyrrole-3-carboxamide hydrochloride] | 7.00 | 7.46 | 6.85
11 | CCCn1c(-c2ccncc2)cc(C(=O)NCCCN2CCN(c3cccc(Cl)c3Cl)CC2)c1C [Example 107, N-(3-(4-(2,3-dichlorophenyl)piperazin-1-yl)propyl)-2-methyl-1-propyl-5-(pyridin-4-yl)-1H-pyrrole-3-carboxamide] | 7.11 | 6.38 | 7.47
12 | O=C(NCCCN1CCN(c2cccc(Cl)c2Cl)CC1)c1c[nH]c(-c2ccccc2)c1 [Example 124, N-(3-(4-(2,3-dichlorophenyl)piperazin-1-yl)propyl)-5-phenyl-1H-pyrrole-3-carboxamide] | 7.27 | 6.97 | 7.64
13 | Cc1c(C(=O)NCCCN2CCN(c3cccc(Cl)c3)CC2)cc(-c2ccccc2)n1CC1CCCCC1 [Example 20, N-(3-(4-(3-chlorophenyl)piperazin-1-yl)propyl)-1-(cyclohexylmethyl)-2-methyl-5-phenyl-1H-pyrrole-3-carboxamide] | 6.67 | 6.21 | 5.97
14 | COc1ccc(-c2cc(C(=O)NCCCN3CCN(c4cccc(Cl)c4Cl)CC3)c(C)n2C)cc1 [Example 74, N-(3-(4-(2,3-dichlorophenyl)piperazin-1-yl)propyl)-5-(4-methoxyphenyl)-1,2-dimethyl-1H-pyrrole-3-carboxamide hydrochloride] | 7.12 | 7.00 | 6.97
15 | CCCn1c(-c2ccc(Cl)cc2)cc(C(=O)NCCCN2CCN(c3cccc(C)c3C)CC2)c1C [Example 65, 5-(4-chlorophenyl)-N-(3-(4-(2,3-dimethylphenyl)piperazin-1-yl)propyl)-2-methyl-1-propyl-1H-pyrrole-3-carboxamide hydrochloride] | 6.88 | 7.59 | 6.72
16 | Cc1cccc(N2CCN(CCCNC(=O)c3cc(-c4ccccc4)n(CC(C)C)c3C)CC2)c1C [Example 27, N-(3-(4-(2,3-dimethylphenyl)piperazin-1-yl)propyl)-1-isobutyl-2-methyl-5-phenyl-1H-pyrrole-3-carboxamide] | 6.46 | 5.89 | 6.05
17 | Cc1cccc(N2CCN(CCCNC(=O)c3cc(-c4ccccc4)n(Cc4ccccc4)c3C)CC2)c1C [Example 18, 1-Benzyl-N-(3-(4-(2,3-dimethylphenyl)piperazin-1-yl)propyl)-2-methyl-5-phenyl-1H-pyrrole-3-carboxamide] | 7.84 | 6.53 | 6.65
18 | Cc1c(C(=O)NCCCN2CCN(c3ccc(F)cc3)CC2)cc(-c2ccccc2)n1C [Example 155, N-(3-(4-(4-Fluorophenyl)piperazin-1-yl)propyl)-1,2-dimethyl-5-phenyl-1H-pyrrole-3-carboxamide] | 6.74 | 6.31 | 7.66
19 | Cc1[nH]c(-c2ccccc2)c(C)c1C(=O)NCCCCN1CCN(c2cccc(Cl)c2Cl)CC1 [Example 78, N-(4-(4-(2,3-dichlorophenyl)piperazin-1-yl)butyl)-2,4-dimethyl-5-phenyl-1H-pyrrole-3-carboxamide hydrochloride] | 7.13 | 8.00 | 7.72
20 | Cc1cccc(N2CCN(CCCCNC(=O)c3cc(-c4ccccc4)[nH]c3C)CC2)c1C [Example 40, N-(4-(4-(2,3-dimethylphenyl)piperazin-1-yl)butyl)-2-methyl-5-phenyl-1H-pyrrole-3-carboxamide hydrochloride] | 7.68 | 7.20 | 8.00
21 | Cc1c(C(=O)NCCCN2CCN(c3ccc(Cl)cc3Cl)CC2)cc(-c2ccccc2)n1C [Example 154, N-(3-(4-(2,4-Dichlorophenyl)piperazin-1-yl)propyl)-1,2-dimethyl-5-phenyl-1H-pyrrole-3-carboxamide hydrochloride] | 7.64 | 6.46 | 6.67
22 | CCCn1c(-c2ccccn2)cc(C(=O)NCCCN2CCN(c3cccc(Cl)c3Cl)CC2)c1C [Example 93, N-(3-(4-(2,3-dichlorophenyl)piperazin-1-yl)propyl)-2-methyl-1-propyl-5-(pyridin-2-yl)-1H-pyrrole-3-carboxamide dihydrochloride] | 6.40 | 6.19 | 7.24
23 | Cc1c(C(=O)N(C)CCCN2CCN(c3cccc(Cl)c3Cl)CC2)cc(-c2ccccc2)n1C [Example 37, N-(3-(4-(2,3-dichlorophenyl)piperazin-1-yl)propyl)-N,1,2-trimethyl-5-phenyl-1H-pyrrole-3-carboxamide hydrochloride] | 7.01 | 7.46 | 7.41
24 | Cc1c(C(=O)NCCCN2CCN(c3cccc(Cl)c3Cl)CC2)cc(-c2ccccc2)n1N1CCCCC1 [Example 13, N-(3-(4-(2,3-dichlorophenyl)piperazin-1-yl)propyl)-2-methyl-5-phenyl-1-(piperidin-1-yl)-1H-pyrrole-3-carboxamide] | 6.53 | 6.10 | 7.17
25 | CCCn1c(-c2ccccc2)cc(C(=O)NCCCCN2CCN(c3cccc(C)c3C)CC2)c1C [Example 33, N-(4-(4-(2,3-dimethylphenyl)piperazin-1-yl)butyl)-2-methyl-5-phenyl-1-propyl-1H-pyrrole-3-carboxamide hydrochloride] | 7.12 | 6.83 | 6.10
